Laboratory results as given in BindingDB's records for doi:10.1016/j.ejmech.2009.09.025 (2010).

biological target: Glutamate receptor ionotropic, kainate 1 (GluK1/GRIK1) (Homo sapiens) (UniProt P39086); experiment: Antagonist activity at human recombinant GluR5 expressed in HEK cells coexpressing aequorine assessed as inhibition of glutamate-induced Ca2+ influx by luminescence reporter assay
Sequence (P39086 whole entry, looked up): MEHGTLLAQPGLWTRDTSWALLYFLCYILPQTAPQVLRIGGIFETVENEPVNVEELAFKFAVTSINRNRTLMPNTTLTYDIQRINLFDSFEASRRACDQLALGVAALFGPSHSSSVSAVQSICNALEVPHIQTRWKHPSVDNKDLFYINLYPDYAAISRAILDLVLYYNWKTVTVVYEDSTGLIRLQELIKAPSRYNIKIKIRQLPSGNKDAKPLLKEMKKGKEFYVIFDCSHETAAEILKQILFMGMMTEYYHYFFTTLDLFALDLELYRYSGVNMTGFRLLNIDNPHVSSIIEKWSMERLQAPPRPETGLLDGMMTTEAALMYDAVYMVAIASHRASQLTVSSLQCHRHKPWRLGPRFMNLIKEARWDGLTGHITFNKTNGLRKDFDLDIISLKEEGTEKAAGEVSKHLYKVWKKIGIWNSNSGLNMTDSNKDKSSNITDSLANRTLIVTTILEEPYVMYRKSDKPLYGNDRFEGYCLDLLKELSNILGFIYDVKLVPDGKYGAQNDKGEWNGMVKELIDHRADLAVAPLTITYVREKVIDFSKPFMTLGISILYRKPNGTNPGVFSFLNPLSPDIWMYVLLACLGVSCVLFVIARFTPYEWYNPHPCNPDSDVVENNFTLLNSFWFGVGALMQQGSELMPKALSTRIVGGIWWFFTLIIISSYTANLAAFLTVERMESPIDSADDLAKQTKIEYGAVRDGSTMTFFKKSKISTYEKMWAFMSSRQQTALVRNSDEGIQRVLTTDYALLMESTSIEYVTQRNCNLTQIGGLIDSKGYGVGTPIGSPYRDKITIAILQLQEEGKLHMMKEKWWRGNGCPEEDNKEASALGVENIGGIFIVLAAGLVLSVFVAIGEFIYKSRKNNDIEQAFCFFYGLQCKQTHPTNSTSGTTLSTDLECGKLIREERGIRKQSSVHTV

IC50	Structure (SMILES)
30 µM	COC(=O)c1c(N)sc(-c2ccccc2)c1C [Methyl 2-amino-4-methyl-5-phenylthiophene-3-carboxylate]

biological target: Glutamate receptor ionotropic, kainate 2 (GluK2/GRIK2) (Homo sapiens) (UniProt Q13002); experiment: Antagonist activity at human recombinant GluR6 expressed in HEK cells coexpressing aequorine assessed as inhibition of glutamate-induced Ca2+ influx at 10 uM by luminescence reporter assay
Sequence (Q13002 whole entry, looked up): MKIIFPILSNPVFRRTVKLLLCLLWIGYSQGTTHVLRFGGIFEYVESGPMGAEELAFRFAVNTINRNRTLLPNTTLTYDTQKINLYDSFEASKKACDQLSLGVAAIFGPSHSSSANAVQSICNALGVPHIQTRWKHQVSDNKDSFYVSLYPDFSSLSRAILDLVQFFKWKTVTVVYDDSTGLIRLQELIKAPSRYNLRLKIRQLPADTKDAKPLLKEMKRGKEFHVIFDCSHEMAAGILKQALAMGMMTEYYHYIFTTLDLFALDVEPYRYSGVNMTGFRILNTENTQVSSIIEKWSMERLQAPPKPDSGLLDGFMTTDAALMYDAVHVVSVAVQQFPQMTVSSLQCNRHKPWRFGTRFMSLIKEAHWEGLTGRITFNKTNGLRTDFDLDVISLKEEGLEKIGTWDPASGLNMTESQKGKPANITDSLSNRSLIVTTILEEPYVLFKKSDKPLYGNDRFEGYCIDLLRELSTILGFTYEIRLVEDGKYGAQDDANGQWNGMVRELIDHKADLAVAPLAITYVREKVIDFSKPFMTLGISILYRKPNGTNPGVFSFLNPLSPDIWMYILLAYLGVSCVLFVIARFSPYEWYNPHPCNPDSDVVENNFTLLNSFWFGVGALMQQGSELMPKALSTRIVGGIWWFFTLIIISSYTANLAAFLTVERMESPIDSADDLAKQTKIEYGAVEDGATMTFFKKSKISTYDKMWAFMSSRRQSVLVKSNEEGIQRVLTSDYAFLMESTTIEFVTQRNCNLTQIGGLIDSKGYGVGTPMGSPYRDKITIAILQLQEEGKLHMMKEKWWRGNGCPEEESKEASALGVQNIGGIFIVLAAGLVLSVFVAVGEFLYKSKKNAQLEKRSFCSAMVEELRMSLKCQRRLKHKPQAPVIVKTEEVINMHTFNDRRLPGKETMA

Structure (SMILES)	IC50
Cc1c(-c2ccccc2)sc(N)c1C#N [2-Amino-4-methyl-5-phenylthiophene-3-carbonitrile]	71 µM
CCOC(=O)c1c(N=NN(C)C)sc(-c2ccccc2)c1C [Ethyl 2-(3,3-dimethyltriaz-1-enyl)-4-methyl-5-phenylthiophene-3-carboxylate]	38 µM
C[C@H](C[C@H](N)C(=O)O)C(=O)O [2-Amino-4-methyl-pentanedioic acid]	4 µM
CCOC(=O)c1c(N)sc(-c2ccccc2)c1-c1ccccc1 [Ethyl 2-amino-4,5-diphenylthiophene-3-carboxylate]	4.5 µM
Clc1ccc(CO[C@@H](Cn2ccnc2)c2ccc(Cl)cc2Cl)c(Cl)c1 [Brentan]	6.5 µM
Cc1c(-c2ccccc2)sc(N)c1C(=O)c1ccccc1 [(2-Amino-4-methyl-5-phenylthiophen-3-yl)(phenyl)methanone]	10.6 µM
CCOC(=O)c1c(N=C=S)sc(-c2ccccc2)c1C [2-isothiocyanato-4-methyl-5-phenylthiophene-3-carboxylate]	3.5 µM
CCOC(=O)c1c(N)sc(-c2ccccc2)c1C [Ethyl 2-amino-4-methyl-5-phenylthiophene-3-carboxylate]	0.75 µM
CCOC(=O)c1c(N=NC#N)sc(-c2ccccc2)c1C [Ethyl 2-(cyanodiazenyl)-4-methyl-5-phenylthiophene-3-carboxylate]	21 µM
CCOC(=O)c1c(N)sc(-c2ccccc2Cl)c1C [Ethyl 2-amino-5-(2-chlorophenyl)-4-methylthiophene-3-carboxylate]	5.7 µM
N#Cc1cc2c(cc1[N+](=O)[O-])=NC(=O)C(=O)N=2 [7-nitro-2,3-dioxo-2,3-dihydroquinoxaline-6-carbonitrile]	23 µM

Results, then the compound that gave them:

IC50	Structure (SMILES)
8.6 µM	CCOC(=O)c1c(N)sc(-c2ccc(OC)cc2)c1C [Ethyl 2-amino-5-(4-methoxyphenyl)-4-methylthiophene-3-carboxylate]
10 µM	CCOC(=O)c1c(Cl)sc(-c2ccccc2)c1C [Ethyl 2-chloro-4-methyl-5-phenylthiophene-3-carboxylate]
2.4 µM	CCCOC(=O)c1c(N)sc(-c2ccccc2)c1C [Propyl 2-amino-4-methyl-5-phenylthiophene-3-carboxylate]
3.6 µM	Cc1c(-c2ccccc2)sc(N)c1C(=O)OC(C)(C)C [Tert-Butyl 2-amino-4-methyl-5-phenylthiophene-3-carboxylate]
12 µM	CCOC(=O)c1c(N)sc(-c2ccc(F)cc2)c1C [Ethyl 2-amino-5-(4-fluorophenyl)-4-methylthiophene-3-carboxylate]
4.1 µM	COC(=O)c1c(N)sc(-c2ccccc2)c1C [Methyl 2-amino-4-methyl-5-phenylthiophene-3-carboxylate]
54 µM	CCOC(=O)c1c(N=NN2CCOCC2)sc(-c2ccccc2)c1C [Ethyl 4-methyl-2-(morpholinodiazenyl)-5-phenylthiophene-3-carboxylate]
